These results are taken from patent US11299472B2, “Fumarate salt of (R)-3-(1-(2,3-dichloro-4-(pyrazin-2-yl)phenyl)-2,2,2- trifluoroethyl)-1-methyl-1-(1-methylpiperidin-4-yl) urea, methods of preparation, and uses thereof” (Helsinn Healthcare SA, priority 2017, dated 2022).

Ends that are not written are not given here.

The test system of data set [1] is Snord116+/− (Het) mice and wild-type (WT) littermates. Nature of the data set: Food intake after acute administration in Prader-Willi mouse model. The data set is classed as in vivo. Conditions: cabergoline 0.5 mg/kg single i.p., fasted 16 hours. The text has this: The effect of HM04 fumarate salt on food intake behavior and glucose tolerance was investigated in the Snord116+/−(Het) mouse genetic model of Prader-Willi syndrome (Het mouse) compared to wild-type (WT) littermates. Since D2R agonists suppress food intake, the FDA approved D2R agonist cabergoline was used as an experimental control. Phenotypic characteristics of this PWS mouse model include hyperphagia, postnatal growth retardation, high ghrelin, and low growth hormone. Ding F., et al. SnoRNA Snord116 (Pwcr1/MBII-85) deletion causes growth deficiency and hyperphagia in mice. PloS one. 2008; 3(3):e1709. These PWS mice eat more frequently than WT littermates, particularly during the light cycle and are more motivated to work for food (more level presses) (data not shown).
Acute administration: Mice (3-, 7-, and 12-month-old) were fasted for 16 hours and then administered a single intraperitoneal injection of vehicle or vehicle containing HM04, cabergoline, or HM04 and cabergoline according to Table 8, below.
HM04 was dissolved in water for injection and cabergoline was dissolved in DMSO to provide a 5% DMSO/water solution for injection. Mice were then given free access to food, and cumulative food intake was measured at 1, 2, 4, 8, 12, and 24 hours post-dosing. […] Data was analyzed for significance using 2-way ANOVA, Bonferroni post hoc test (Graphpad Prism, Prism 5.0, San Diego, Calif.).

The nature of data set [2]: Rat pharmacokinetic study, HM04 free base vs HM04 fumarate salt (Example 9). Format: in vivo, male Sprague Dawley rats.
Data set [3] can be described thus: Estimated aqueous solubility. Conditions: aqueous (water). Format: physicochemical.
Data set [4] is described as follows: Rat pharmacokinetic study, HM04 free base vs HM04 fumarate salt (Example 9). Format: in vivo, male Sprague Dawley rats. Conditions: 3 mg/kg oral. Here is the method:
The pharmacokinetics of HM04 in plasma of male Sprague Dawley rats dosed with a single oral administration of 3 mg/kg HM04 (based on the weight of the free base) formulated in a solution of 10% DMAC, 6% Solutol, and 84% PBS using either the HM04 free base or HM04 fumarate salt were compared. Blood samples were withdrawn at set time intervals and plasma concentration of HM04 was measured by LC-MS/MS. A comparison of the plasma concentration of HM04 (ng/mL) over time in rats dosed orally with HM04 free base and HM04 fumarate salt is provided in FIG. 17.

The nature of data set [5]: Dog pharmacokinetic study, HM04 free base vs HM04 fumarate salt (Example 9). The data set is classed as in vivo, male Beagle dogs.
Data set [6] is described as follows: GVS analysis (hygroscopicity). The data set is classed as physicochemical. On the procedure: For the GVS analysis, 15-20 mg of sample was loaded into an IgaSorp vapour sorption balance (Hiden Analytical Instruments). The sample was then dried by maintaining a 0% humidity environment until no further weight change was recorded. The sample was then subjected to a ramping profile from 0 to 90% RH at 10% RH increments, maintaining the sample at each step until equilibration had been attained (99% step completion). Upon reaching equilibrium, the % RH within the apparatus was ramped to the next step and the equilibration procedure repeated. After completion of the sorption cycle, the sample was dried using the same procedure. The weight change during the sorption/desorption cycles were then monitored, allowing for the hygroscopic nature of the sample to be determined.

The nature of data set [7]: Dog pharmacokinetic study, HM04 free base vs HM04 fumarate salt (Example 9). The data set is classed as in vivo, male Beagle dogs. Here is the method: The pharmacokinetics of HM04 in plasma of male Beagle dogs dosed with a single oral administration of 2 mg/kg HM04 formulated in a solution of 10% DMAC, 6% Solutol, and 84% PBS using either the HM04 free base or HM04 fumarate salt were compared. A comparison of the plasma concentration of HM04 (ng/mL) over time in dogs dosed orally with HM04 free base and HM04 fumarate salt is provided in FIG. 18. Bioavailability was calculated from a dose normalized ratio of the oral mean AUC to the intravenous mean AUC (AUCpo/AUCiv×Doseiv/Dosepo).
The source holds these as a separate data set.

For data set [8], the system named is ghrelin-induced increase of GH. Nature of the data set: Ghrelin-induced increase of growth hormone in rats. Format: in vivo. The note with it: after 15 μg/kg ghrelin i.v. On the procedure:
Rats were divided into four groups: 1) 1 ml/kg saline plus 10 ml/kg 0.5% CMC p.o. (n=6); 2) 15 μg/kg ghrelin i.v. plus 10 ml/kg 0.5% CMC p.o. (n=6); 3) 30 mg/kg HM04 fumarate salt p.o. 2 hours before 15 μg/kg ghrelin i.v. (n=6); 4) 10 mg/kg ghrelin antagonist R011 i.p. 30 minutes before 15 μg/kg ghrelin i.v. (n=6). Blood was collected as 100 μl samples at time 0 and at 15 minutes after ghrelin injection. Rats were anesthetized with 64.8 mg/kg sodium pentobarbital. A catheter filled with heparinized saline solution was inserted in the left femoral artery for blood collection and fitted with an extension tube, 1-mL sampling syringe, and a 3-way cock to allow excess blood to return.
Plasma levels of growth hormone (GH) were determined using Rat GH ELISA (Millipore, Catalog No. EZRMGH-45K). Measurements were performed in duplicate. […] One-way and two-way ANOVA test was used to compare differences between groups. All values are presented as mean±SEM. One-way ANOVA was performed followed by Turkey's post hoc test where significance was indicated by p values<0.05 or p values<0.01.

[9] abbreviates: male, Sprague Dawley, plasma, mean ± S.D., n=3.
The mark [10] stands for this setting: male, Beagle, plasma, 2 mg/kg oral, mean ± S.D., n=3.

In the case of `C=CCN1C[C@H](C(=O)N(CCCN(C)C)C(=O)NCC)C[C@@H]2c3cccc4[nH]cc(c34)C[C@H]21` [Cabergoline, cabergoline, reference compound], the cumulative food intake entry in data set [1] (7-month-old Het mice) and in data set [1] (7-month-old WT mice) was “inhibited food intake” each time.
Broadly, the bioavailability is dose-corrected exposure relative to a reference, in per cent. The Cmax is the highest concentration seen after dosing. Broadly, the solubility is how much of the substance goes into solution per volume. Broadly, the AUC(0-t) is exposure summed from dosing to a finite time, without extrapolation to infinity. As a reminder, the Tmax is the time from dosing to the highest level. Regarding `CN1CCC(N(C)C(=O)N[C@H](c2ccc(-c3cnccn3)c(Cl)c2Cl)C(F)(F)F)CC1` [HM04 free base, (R)-3-(1-(2,3-dichloro-4-(pyrazin-2-yl)phenyl)-2,2,2-trifluoroethyl)-1-methyl-1-(1-methylpiperidin-4-yl) Urea], the HM04 plasma concentration is 24.2 ± 6.6 ng/mL in data set [2] (3 mg/kg oral, 0.25 hours, mean ± S.D., n=3); 25.0 ± 13.0 ng/mL in data set [2] (3 mg/kg oral, 4 hours, mean ± S.D., n=3); 39.0 ± 5.2 ng/mL in data set [4] (0.50 hours, mean ± S.D., n=3); 44.4 ± 6.0 ng/mL in data set [4] (1 hour, mean ± S.D., n=3); 35.7 ± 11.3 ng/mL in data set [4] (2 hours, mean ± S.D., n=3); 7.9 ± 5.8 ng/mL in data set [4] (8 hours, mean ± S.D., n=3). Also, the HM04 plasma concentration in data set [5] (2 mg/kg oral, 1 hour, mean ± S.D., n=3) is given as 66.33 ± 4.25 ng/mL; in data set [5] (2 mg/kg oral, 4 hours, mean ± S.D., n=3) it was 67.34 ± 6.27 ng/mL; in data set [7] (2 mg/kg oral, 0.25 hours, mean ± S.D., n=3), 8.94 ± 5.56 ng/mL; in data set [7] (2 mg/kg oral, 0.50 hours, mean ± S.D., n=3), 49.40 ± 7.72 ng/mL; in data set [7] (2 mg/kg oral, 2 hours, mean ± S.D., n=3), 74.05 ± 3.77 ng/mL. Also, the AUC in data set [2] (male, Sprague Dawley, plasma, 3 mg/kg intravenous, three rats, read-out: mean AUC following intravenous administration) was 990 ± 24.6 ng·h/mL; in data set [5] (male, Beagle, plasma, 1 mg/kg intravenous, three dogs, read-out: mean AUC following intravenous administration) it was 782 ± 364 ng·h/mL. In addition, the bioavailability in data set [2] (male, Sprague Dawley, plasma, 3 mg/kg oral vs 3 mg/kg intravenous mean AUC) amounted to 22.2 ± 5.8%; in data set [7] (male, Beagle, plasma, 2 mg/kg oral vs 1 mg/kg intravenous, dose normalized AUC ratio), 59.4 ± 9.11%. Further, the Cmax was found to be 44.4 ± 6 ng/mL in data set [2] (male, Sprague Dawley, plasma, 3 mg/kg oral, mean ± S.D., n=3) and 74 ± 3.77 ng/mL in data set [7] (setting [10]). Moreover, the solubility in data set [3] is less than 2000 µg/mL. In addition, the results for the AUC(0-t) in data set [4] (setting [9]) and in data set [7] (setting [10]) were 220 ± 57.2 ng·h/mL and 929 ± 142 ng·h/mL, respectively. The figures for the Tmax in data set [4] (setting [9]) and in data set [7] (setting [10]) were 1 h and 2 h, respectively. In data set [4] (male, Sprague Dawley, plasma, po, 3 mg/kg, 24 hours, N = 1 (two of three animals below level of quantification)), the concentration at 24 hours turned out to be 2.4 ng/mL. Moreover, the concentration at 8 h in data set [5] (male, Beagle, plasma, po, 2 mg/kg, 2 mg/kg oral, 8 hours, mean ± S.D., n=3) was found to be 49.2 ± 10.2 ng/mL. The concentration at 24 h in data set [5] (male, Beagle, plasma, po, 2 mg/kg, 2 mg/kg oral, 24 hours, mean ± S.D., n=3) was determined as 6.61 ± 4.38 ng/mL. Further, the “hygroscopicity (GVS)” value in data set [6] is recorded as “slightly hygroscopic”. The “weight gain (GVS)” value in data set [6] (up to 70% relative humidity (RH)) is “approximately 1.5%”; in data set [6] (up to 80% RH), “approximately 2%”.
“ghrelin: growth hormone-releasing peptide, injected i.v. to induce GH increase (GSSFLSPEHQRVQQRKESKKPPAKLQPR; ends and bridges not checked; UniProt Q9UBU3 24-51, looked up) [reference compound]”: the “mean plasma GH concentration” value in data set [8] was in the range of 90 to 120 ng/mL.
